Results on twelve compounds are retold here after patent EP0002400A1, “Thiazole derivatives, their preparation, intermediates and their use in therapeutics” (SYNTHELABO, priority 1977, dated 1979).

The subject of this experiment is pointes ponto-géniculo-occipitales (P.G.O.). As to the kind of experiment: Reserpine-induced ponto-geniculo-occipital (PGO) spikes in the curarized cat. The class given is in vivo, chat. Particulars: Felis catus, iv, 0.5 h; dose reducing number of PGO spikes by 50%; cat given réserpine 0,75 mg/kg i.p.; increasing i.v. doses every 30 min, 4H30 after réserpine; read-out: P G O DE 50. From the text: Par ailleurs in a étudié l'action des drogues sur les pointes pontc-géniculo-occipitales lors du syndrome réser- pinique chez le chat curarisé, afin de mettre en évidence les propriétés antidépressives des composés.
Che= le chat, on enregistre une activité spécifique au niveau du pont, du noyau genouillé latéral et du cortex occipital qui fut appelée pointes ponto-géniculo-occipitales (P.G.O.).
Cette activité spontanée, (pointes P.G.O.), apparaissant lors du =ycle veille-sommeil, peut être induite par la réserpiné, agent pharmacologique diminuant le taux des monoamines cérébrales.
Cette activité électroencéphalographique, modulée par des mécanismes neuronaux sous le contrôle de neurotransmetteurs sy=aptiques, constitue donc un test pharmacologique pour l'étude de l'action centrale des drogues.
Toutes les expériences sont réalisées de manière aiguë sur des chats des deux sexes de 2 à 3 kg.
Avant le débtt de la préparation chirurgicale effectuée scis narcose à l'éther, l'animal reçoit une injection in- trapéritonéale de 0,75 mg/kg i.p. de réserpine.
Le chat est intubé pour permettre une ventilation artificielle.
Un anesthésique local (xylocalne à 2%) est injecté au niveau des points de pression et des incisions.
Des canules sont placées au niveau de la veine fémorale, pour l'injection des produits et l'infusion d'un agent curarisant, la gallamine triethiodide (Flaxédil^R), et de l'artère fémorale pour l'enregistrement de la pression artérielle.
Des électrodes monopolaires sont vissées α- niveau cortical et des électrodes bipolaires coaxiales sont placées sté- réotaxiquement au niveau des noyaux genouillés latéraux.
L'animal curarisé et ventilé artificiellement est maintenu à température constante tout au long de l'expérience.
L'électroencéphalogramme, l'électrocardiogramme et la pression artérielle sont enregistrés à l'aide d'un polygraphe : Grass modèle 79 D.
Des doses croissantes (0,1; 0,3; 1; 3; 10 et 30 mg/kg) des produits à étudier sont injectées par voie intraveineuse toutes les 30 minutes, 4H30 après l'administration de la réserpine.
Le nombre des pointes P.G.O. est comptabilisé automatiquement par périodes de 10 minutes et exprimé en pourcentage par périodes de 30 minutes en prenant la valeur obtenue lors des 30 minutes de contrôle comme référence (100%).
La dose efficace réduisant de 50% (DE 50) le nombre des pointes P.G.O. est calculée à l'aide d'une courbe de regression semi-logarithmique.

Regarding `C1=C(CSc2ccccc2)N2CCN=C2S1` [compound 1, Chlorhydratede phénylthiométhyl-3 dihydro-5,6 imidazo [2,1 - b] thiazole], the ED50 was 0.4 mg/kg.

On to `Clc1cccc(OCC2=CSC3=NCCN23)c1` [compound 9], for which the ED50 worked out at 1 mg/kg.

With `Cc1ccc(OCC2=CSC3=NCCN23)cc1` [compound 12], the ED50 was 0.8 mg/kg.

Take `Brc1ccccc1OCC1=CSC2=NCCN12` [compound 18]: the ED50 came to 0.14 mg/kg.

`C1=C(COc2ccccc2)N2CCN=C2S1` [compound 5, Chlorhydrate du phénoxyméthyl-3 dihydro-5,6 imidazo [2,1-b] thiazole]: the ED50 is 1.2 mg/kg.

For the compound `C1=C(COc2ccccc2-c2ccccc2)N2CCN=C2S1` [compound 31], the ED50 came to 0.24 mg/kg.

On to `COc1ccc(OCC2=CSC3=NCCN23)cc1` [compound 6], for which the ED50 came out at 1 mg/kg.

With `Clc1ccccc1OCC1=CSC2=NCCN12` [compound 11], the ED50 is 0.24 mg/kg.

Turning to `Cc1ccccc1OCC1=CSC2=NCCN12` [compound 10, Chlorhydratede (méthyl-2 phénoxy-méthyl)-3 dihydro-5,6 imidazo-[2,1-b] thiazole], the ED50 was 0.3 mg/kg.

As to `CCOc1ccccc1OCC1=CSC2=NCCN12` [compound 24], the ED50 was 0.5 mg/kg.

For `FC(F)(F)c1ccccc1OCC1=CSC2=NCCN12` [compound 21], the ED50 came out at 0.2 mg/kg.

Take `COc1ccccc1OCC1=CSC2=NCCN12` [compound 3]: the ED50 amounted to 0.4 mg/kg.
